# Data as given in patent US6225478A, “Iridoid derivatives and neovascularization inhibitors containing the same as active ingredient” (Tsumura & Co., priority 1999, dated 2001).
# Key:
# [1] = system: human umbilical-vein endothelial cells (HUVEC); assay: Tube Formation Assay (TFA) Test, HUVEC in collagen gel; format: cell-based; settings: Homo sapiens, HUVEC, Tables 75-83; 0.32 mM sample solution; method as for Compounds 1 through 60; read-out: TFA Inhibition rate (%)
# Procedure: Furthermore, the sample liquids of compounds used in the CPA and CMA tests were prepared in the manner described below. Firstly, after weighing out each compound, a calculated amount of DMSO was added. After dissolving the compound in the DMSO, phosphate buffered physiological saline (PBS (-)) was added to bring the sample concentration to 1 mg/ml in PBS (-). The amount of DMSO used to dissolve the compounds was adjusted in advance to that the concentration of DMSO at that time was 5%. The resulting liquids were diluted 10-fold with 5% DMSO-PBS (-) solution to prepare sample solutions having a concentration of 0.1 mg/ml. In the TFA test, 320 μl of the prepared 1 mg/ml sample solutions were removed followed by addition of 680 μl of PBS (-) to prepare samples having a concentration of […]. Moreover, 100 μl of this solution was removed followed by addition of 900 μl of PBS (-) to dilute 10-fold and prepare samples having a concentration of 1 μg/ml. P [Cell Proliferation Assay (CPA) Test]
# To begin with, 8 volumes of Type 1-A cell matrix (manufactured by Gibco Co.), 1 volume of 10×M119, and 1 volume of reconstituted buffer [200 mM HEPES, 0.05 N sodium hydroxide, 260 mM sodium bicarbonate] were slowly mixed under cooling with ice while avoiding bubbling to form a collagen gel. This collagen gel was distributed in a NUNC 24-well plate at 310 μl/well followed by allowing to stand undisturbed for 2 hours at 37° C. to solidify the gel.
# Next, the 7th subculture of HUVEC (1×10^5 cells/ml) obtained from the first generation in the same manner as above were disseminated at 500 μl/well. The cells were cultured for 2 hours at 37° C. to allow the cells to make contact with the collagen. After then removing the medium by aspiration, 50 μl of sample solution were added followed by addition of 310 μl/well of freshly prepared collagen gel and culturing for 1 hour and 10 minutes at 37° C. to solidify the double-layer gel.
# 1 ml/well of M-199 medium containing 20% FCS, 30 ng /ml of b-FGF and 0.1 μM PMA were added to the wells followed by culturing for 20 hours at 37° C. in the presence of 5% CO2.
# Measurement of the lengths of the formed tubes was performed using the public domain NIH Image with a computer.
# Evaluation was performed by calculating the inhibition rate (%) of tube formation according to the following formula.
# Inhibition rate (%)=100-((formed tube length in presence of sample-formed tube length in presence of control (-))×100/(formed tube length in presence of control (+)-formed tube length in presence of control (-)))
# (§1) Samples were prepared using the present compounds of Compound No. I-60 through I-315. More specifically, 32 μl of a 20 mM sample solution dissolved in dimethylsulfoxide (DMSO) were removed and brought to a volume of 1 ml with phosphate-buffered saline (PBS) to prepare a sample solution having a concentration of 0.32 mM (containing 3.2% DMSO).
# The testing method used for these compounds was the same as that used for the compounds of Compound No. 1 through 60 previously described.
# HUFEC = assay: Cell Migration Assay (CMA) Test, inhibitory rate with control (-) correction; format: cell-based, human; settings: Homo sapiens, 24 h, 125 μl of 0.32 mM sample solution in 4.0 ml medium, 80% or more = remarkable
# Procedure: as §1
# After disseminating the 7th subculture of […] obtained from the first generation at 4 ml/well (3.0×10^5 cells/well) in a collagen-coated 6-well plate (NUNC), the cells were cultured for 48 hours at 37° C. in the presence of 5% CO2. The cells reached nearly a completely confluent state as a result of this culturing.
# A double-edged, disposable razor blade was divided into four sections, of which one of those sections was pinched between a pair of forceps. Using this piece of razor blade, the cell surface in the above confluent state was scraped off.
# After washing the surface of the wells from which the cells had been scraped off with medium, 4.0 ml of fresh M199 (2+) medium were placed in the wells. 4.0 ml of M199 medium were added to the control (-) well.
# 125 μl of sample solution (0.32 mM, containing 3.2% dimethylsulfoxide) were added to the wells.
# 125 μl of PBS solution containing 3.2% dimethylsulfoxide were added to the control wells instead of sample. The cells were cultured for 24 hours at 37° C. in the presence of 5% CO2. After discarding the culture liquid, the cells were fixed for 30 minutes with methanol. Next, after […] the cells for 4 hours with Giemsa stain, the plates were washed with tap water and air dried.
# Measurement of cell migration was performed by microscopically counting the number of cells that had newly migrated within the range of a 1 mm×1 mm block. […] The total number of cells counted in blocks 1 through 5 were then totaled to determine the overall total number of cells. Four fields were counted for each well.
# Evaluation was performed determining the cell migration inhibitory rate (%) according to the following equation.
# Inhibitory rate=100-((number of migrating cells to which sample was added-number of migrating cells of control (-))×100/(number of migrating cells of control (+)-number of migrating cells of control (-)))
# If this inhibitory rate was 80% or more, cell migration was assessed as being remarkable.
SMILES,inhibition at 320 µM (stock) [1],inhibition at 320 µM (stock) (HUFEC)
"CNC(=O)O[C@@H]1OC=C(C(=O)OC)[C@H]2CC=C(CO)C12 (stereo in doubt) [I-315, (1S,4aS,7aR)-7-(hydroxy-methyl)-1-(methylcarbamoyloxy)-1,4a,5,7a-tetrahydrocyclopenta [c] pyrane-4-carboxylic acid methylester]",8.6%,36.4%
C=CCN(CC=C)C(=O)O[C@@H]1OC=C(C(=O)OC)[C@H]2CC=C(C)[C@@H]12 [I-125],2.6%,17.2%
COC(=O)C1=CO[C@@H](OC(=O)NCCc2ccccc2F)[C@H]2[C@@H]1CC[C@@H]2C [I-185],4.9%,15.6%
CNC(=O)O[C@@H]1OC=C(C(=O)NCc2nc3ccccc3[nH]2)[C@H]2C[C@@H]3O[C@]3(C)[C@@H]12 [I-63],41.7%,14.2%
COC(=O)C1=CO[C@@H](OC(=O)NCc2ccc3c(c2)OCO3)[C@H]2[C@@H]1CC[C@@H]2C [I-234],7.3%,7.3%
COC(=O)C1=CO[C@H](OC(=S)N(C)C)[C@H]2[C@@H]1C[C@@H]1O[C@]21C [I-285],7.7%,6.5%
COC(=O)C1=CO[C@@H](OC(=O)NCCCCl)[C@H]2[C@@H]1CC[C@@H]2C [I-244],5.2%,19.5%
COC(=O)C1=CO[C@@H](OC(=O)NCCS)[C@H]2[C@@H]1CC[C@@H]2C [I-236],10.4%,28.1%
COC(=O)C1=CO[C@@H](OC(=O)NCc2ccc(Br)cc2)[C@@H]2C(C)=CC[C@H]12 [I-143],8.1%,5.9%
COCCCNC(=O)O[C@@H]1OC=C(C(=O)OC)[C@H]2CC=C(C)[C@@H]12 [I-121],9.4%,7.1%
COC(=O)C1=CO[C@@H](OC(=O)NCCCc2ccccc2)[C@@H]2C(C)=CC[C@H]12 [I-112],7.9%,6.8%
COC(=O)C1=CO[C@@H](OC(=O)NCCc2ccccn2)[C@H]2[C@@H]1CC[C@@H]2C [I-182],9.6%,3.9%
COC(=O)C1=CO[C@@H](OC(=O)N2CCCCC2)[C@@H]2C(C)=CC[C@H]12 [I-111],2.9%,9.4%
CCC(CC)NC(=O)O[C@@H]1OC=C(C(=O)OC)[C@H]2CC[C@H](C)[C@@H]12 [I-207],4.4%,5.5%
COC(=O)C1=CO[C@@H](OC(=O)N(C)C)[C@H]2[C@@H]1CC[C@@H]2C [I-239],5.7%,7.8%
CCNC(=O)O[C@@H]1OC=C(C(=O)OC)[C@H]2CC=C(C)[C@@H]12 [I-151],38.1%,35.9%
COC(=O)C1=CO[C@@H](OC(=O)Nc2ccc(OC(F)(F)F)cc2)[C@@H]2C(C)=CC[C@H]12 [I-165],7.5%,12.5%
COC(=O)C1=CO[C@@H](OC(=O)Nc2ccc(C)cc2)[C@@H]2C(C)=CC[C@H]12 [I-169],13.7%,12.6%
CCOc1ccccc1N1CCN(C(=O)O[C@@H]2OC=C(C(=O)OC)[C@H]3CC[C@H](C)[C@@H]23)CC1 [I-243],8.1%,6.7%
COC(=O)C1=CO[C@@H](OC(=O)NCCc2ccccc2)[C@H]2[C@@H]1CC[C@@H]2C [I-224],10.5%,15.6%

SMILES,inhibition at 320 µM (stock) [1],inhibition at 320 µM (stock) (HUFEC)
CCOC(=O)C1=CO[C@@H](OC(=O)NC)[C@@H]2C(C)=CC[C@H]12 [I-312],41.8%,34.9%
COC(=O)C1=CO[C@@H](OC(=O)NCCCl)[C@H]2[C@@H]1CC[C@@H]2C [I-258],3.8%,5.7%
CCCCCCC1CC[C@@H]2C(C(=O)OC)=COC[C@H]12 (stereo partly drawn) [I-294],7.8%,4.5%
COC(=O)C1=CO[C@@H](OC(=O)N2CCN(CCO)CC2)[C@@H]2C(C)=CC[C@H]12 [I-71],4.1%,25.4%
COC(=O)C1=CO[C@@H](OC(=O)NCCCCl)[C@@H]2C(C)=CC[C@H]12 [I-142],3.7%,9.8%
CCN1CCN(C(=O)O[C@@H]2OC=C(C(=O)OC)[C@H]3CC[C@H](C)[C@@H]23)CC1 [I-200],5.6%,25%
COC(=O)C1=CO[C@@H](OC(=O)N2CCC2)[C@H]2[C@@H]1CC[C@@H]2C [I-250],4.1%,8%
COC(=O)C1=CO[C@@H](OC(=O)Nc2cccc(C(C)=O)c2)[C@H]2[C@@H]1CC[C@@H]2C [I-273],17.5%,3.8%
COC(=O)C1=CO[C@@H](OC(=O)NCCc2cccc(F)c2)[C@@H]2C(C)=CC[C@H]12 [I-99],8.6%,9.9%
COC(=O)C1=COC[C@H]2[C@@H]1C[C@@H]1O[C@@]12C [I-303],30.6%,6.1%
CCCN(C)C(=O)O[C@@H]1OC=C(C(=O)OC)[C@H]2CC=C(C)[C@@H]12 [I-90],22.8%,4.3%
COC(=O)C1=CO[C@@H](OC(=O)NCCc2ccc(F)cc2)[C@H]2[C@@H]1CC[C@@H]2C [I-212],7.8%,21.5%
COC(=O)C1=CO[C@@H](OC(=O)NC(=O)c2ccccc2)[C@@H]2C(C)=CC[C@H]12 [I-153],19%,22.3%
CNC(=O)O[C@@H]1OC=C(C(=O)N2CCN(CCO)CC2)[C@H]2CC=C(C)[C@@H]12 [I-309],5.2%,48%
CNC(=O)O[C@@H]1OC=C(C(=O)OC)[C@H]2CC=C(C)[C@@H]12 [I-174],67%,12.9%
CNC(=O)OCCN1CCN(C(=O)C2=COC[C@@H]3[C@H](C)CC[C@H]23)CC1 [I-306],22.6%,25.1%
COC(=O)C1=CO[C@@H](OC(=O)N2CCN(c3cccc(C(F)(F)F)c3)CC2)[C@@H]2C(C)=CC[C@H]12 [I-130],5.5%,7.5%
COC(=O)C1=CO[C@@H](OC(=O)NCc2ccccc2F)[C@@H]2C(C)=CC[C@H]12 [I-126],4%,6.5%
CCCCCCC1CC[C@@H]2C(C(=O)OC)=CO[C@@H](OC(=O)NC)[C@H]12 (stereo partly drawn) [I-300],14.6%,8%
